Assay results reported in patent US9302999B2, “Substituted triazoles as herbicides” (E. I. DU PONT DE NEMOURS AND COMPANY, priority 2012, dated 2016).
Like-named read-outs stand apart in the source and are kept apart here.

Key:
Assay type in all cases: in vivo
corn (Zea mays) = experiment: Test A pre-/postemergence: corn; conditions: Zea mays, 240 h; for plant injury at 125 g/ha / plant injury at 500 g/ha: post-emergence, Postemergence, read-out: Corn plant response rating; for plant injury at 125 g/ha / Corn plant response rating (crop injury, 0 = no effect, 100 = complete kill) at 125 g/ha: 125 g ai/ha; for plant injury at 500 g/ha / Corn plant response rating (crop injury, 0 = no effect, 100 = complete kill) at 500 g/ha: 500 g ai/ha; for plant injury at 500 g/ha: visual rating on 0 to 100 scale (0 no effect, 100 complete control), approximately ten days; for Corn plant response rating (crop injury, 0 = no effect, 100 = complete kill) at 125 g/ha / Corn plant response rating (crop injury, 0 = no effect, 100 = complete kill) at 500 g/ha: pre-emergence, Preemergence
Method in brief: (§1)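 Injury is scored visually on a scale where 0 means no effect and 100 complete control, comparing treated with untreated plants after approximately ten greenhouse days. Both preemergence and postemergence applications are made at the same time.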

[1] = test system: wheat (Triticum aestivum); experiment: Test A pre-/postemergence: wheat; conditions: Triticum aestivum, 240 h; for plant injury at 125 g/ha: 125 g ai/ha; for plant injury at 500 g/ha: 500 g ai/ha
Method in brief: as §1

[2] = test system: crabgrass, large (large crabgrass, Digitaria sanguinalis); experiment: Test A pre-/postemergence: crabgrass, large; conditions: Digitaria sanguinalis, 240 h; for pest or weed control at 125 g/ha: 125 g ai/ha; for pest or weed control at 500 g/ha: 500 g ai/ha
Method in brief: as §1

[3] = test system: barnyardgrass (Echinochloa crus-galli); experiment: Test A pre-/postemergence: barnyardgrass; conditions: Echinochloa crus-galli, 240 h; for pest or weed control at 125 g/ha: 125 g ai/ha; for pest or weed control at 500 g/ha: 500 g ai/ha
Method in brief: as §1

[4] = test system: pigweed (Amaranthus retroflexus); experiment: Test A pre-/postemergence: pigweed; conditions: Amaranthus retroflexus, 240 h; for pest or weed control at 125 g/ha: 125 g ai/ha; for pest or weed control at 500 g/ha: 500 g ai/ha
Method in brief: as §1

[5] = 0 to 100 scale, 0 is no effect, 100 is complete control
[6] = 0 to 100 scale (0 no effect, 100 complete control)
[7] = post-emergence, Postemergence, 0 to 100 scale, 0 is no effect, 100 is complete control, read-out: Wheat plant response rating
[8] = post-emergence, Postemergence, visual rating on 0 to 100 scale (0 no effect, 100 complete control), approximately ten days, read-out: Wheat plant response rating
[9] = pre-emergence, Preemergence, 0 to 100 scale (0 no effect, 100 complete control), read-out: Plant response rating, Wheat
[10] = post-emergence, Postemergence, 0 to 100 scale, 0 is no effect, 100 is complete control, read-out: Crabgrass, Large plant response rating
[11] = post-emergence, Postemergence, visual rating on 0 to 100 scale (0 no effect, 100 complete control), approximately ten days, read-out: Crabgrass, Large plant response rating
[12] = pre-emergence, Preemergence, 0 to 100 scale (0 no effect, 100 complete control), read-out: Plant response rating, Crabgrass, Large
[13] = post-emergence, Postemergence, 0 to 100 scale, 0 is no effect, 100 is complete control, read-out: Barnyardgrass plant response rating
[14] = post-emergence, Postemergence, visual rating on 0 to 100 scale (0 no effect, 100 complete control), approximately ten days, read-out: Barnyardgrass plant response rating
[15] = pre-emergence, Preemergence, 0 to 100 scale (0 no effect, 100 complete control), read-out: Plant response rating, Barnyardgrass
[16] = post-emergence, Postemergence, 0 to 100 scale, 0 is no effect, 100 is complete control, read-out: Pigweed plant response rating
[17] = post-emergence, Postemergence, visual rating on 0 to 100 scale (0 no effect, 100 complete control), approximately ten days, read-out: Pigweed plant response rating
[18] = pre-emergence, Preemergence, 0 to 100 scale (0 no effect, 100 complete control), read-out: Plant response rating, Pigweed

## COc1nn(-c2ccc(C(F)(F)F)cc2)nc1Cn1ccc(C(F)(F)F)n1 [Compound 17, 4-methoxy-2-[4-(trifluoromethyl)phenyl]-5-[[3-(trifluoromethyl)-1H-pyrazol-1-yl]methyl]-2H-1,2,3-triazole]
Corn (Zea mays); [5]
  plant injury at 125 g/ha: 30%
  Corn plant response rating (crop injury, 0 = no effect, 100 = complete kill) at 500 g/ha: 20%
Corn (Zea mays)
  plant injury at 500 g/ha: 30%
Corn (Zea mays); [6]
  Corn plant response rating (crop injury, 0 = no effect, 100 = complete kill) at 125 g/ha: 0%
[1]; [7]
  plant injury at 125 g/ha: 20%
[1]; [8]
  plant injury at 500 g/ha: 40%
[1]; [9]
  plant injury at 125 g/ha: 0%
[1]; pre-emergence, Preemergence, 0 to 100 scale, 0 is no effect, 100 is complete control, read-out: Plant response rating, Wheat
  plant injury at 500 g/ha: 0%
[2]; [10]
  pest or weed control at 125 g/ha: 90%
[2]; [11]
  pest or weed control at 500 g/ha: 90%
[2]; [12]
  pest or weed control at 125 g/ha: 100%
[2]; pre-emergence, Preemergence, 0 to 100 scale, 0 is no effect, 100 is complete control, read-out: Plant response rating, Crabgrass, Large
  pest or weed control at 500 g/ha: 100%
[3]; [13]
  pest or weed control at 125 g/ha: 30%
[3]; [14]
  pest or weed control at 500 g/ha: 90%
[3]; [15]
  pest or weed control at 125 g/ha: 30%
[3]; pre-emergence, Preemergence, 0 to 100 scale, 0 is no effect, 100 is complete control, read-out: Plant response rating, Barnyardgrass
  pest or weed control at 500 g/ha: 90%
[4]; [16]
  pest or weed control at 125 g/ha: 90%
[4]; [17]
  pest or weed control at 500 g/ha: 100%
[4]; [18]
  pest or weed control at 125 g/ha: 90%
[4]; pre-emergence, Preemergence, 0 to 100 scale, 0 is no effect, 100 is complete control, read-out: Plant response rating, Pigweed
  pest or weed control at 500 g/ha: 100%

## CCc1nn(-c2ccc(C(F)(F)F)cc2)nc1Oc1cccc(OC(F)(F)F)c1 [Compound 125, 4-ethyl-5-[3-(trifluoromethoxy)phenoxy]-2-[4-(trifluoromethyl)phenyl]-2H-1,2,3-triazole]
Corn (Zea mays); [5]
  plant injury at 125 g/ha: 20%
Corn (Zea mays)
  plant injury at 500 g/ha: 30%
Corn (Zea mays); 0 to 100 scale where 0 is no effect and 100 is complete control
  Corn plant response rating (crop injury, 0 = no effect, 100 = complete kill) at 125 g/ha: 0%
Corn (Zea mays); [6]
  Corn plant response rating (crop injury, 0 = no effect, 100 = complete kill) at 500 g/ha: 0%
[1]; [7]
  plant injury at 125 g/ha: 0%
[1]; [8]
  plant injury at 500 g/ha: 20%
[1]; pre-emergence, Preemergence, 0 to 100 scale where 0 is no effect and 100 is complete control, read-out: Plant response rating, Wheat
  plant injury at 125 g/ha: 0%
[1]; [9]
  plant injury at 500 g/ha: 0%
[2]; [10]
  pest or weed control at 125 g/ha: 60%
[2]; [11]
  pest or weed control at 500 g/ha: 90%
[2]; pre-emergence, Preemergence, 0 to 100 scale where 0 is no effect and 100 is complete control, read-out: Plant response rating, Crabgrass, Large
  pest or weed control at 125 g/ha: 80%
[2]; [12]
  pest or weed control at 500 g/ha: 90%
[3]; [13]
  pest or weed control at 125 g/ha: 0%
[3]; [14]
  pest or weed control at 500 g/ha: 30%
[3]; pre-emergence, Preemergence, 0 to 100 scale where 0 is no effect and 100 is complete control, read-out: Plant response rating, Barnyardgrass
  pest or weed control at 125 g/ha: 30%
[3]; [15]
  pest or weed control at 500 g/ha: 50%
[4]; [16]
  pest or weed control at 125 g/ha: 90%
[4]; [17]
  pest or weed control at 500 g/ha: 100%
[4]; pre-emergence, Preemergence, 0 to 100 scale where 0 is no effect and 100 is complete control, read-out: Plant response rating, Pigweed
  pest or weed control at 125 g/ha: 70%
[4]; [18]
  pest or weed control at 500 g/ha: 90%
